Key:
[1] = molecular target: T1, ceramide kinase (CERK), mouse (Mus musculus, UniProt Q8K4Q7); assay: C1P product levels by UPLC ESI-MS/MS in mouse dermal fibroblasts, […]; format: cell-based
T1 sequence (Q8K4Q7 1-531): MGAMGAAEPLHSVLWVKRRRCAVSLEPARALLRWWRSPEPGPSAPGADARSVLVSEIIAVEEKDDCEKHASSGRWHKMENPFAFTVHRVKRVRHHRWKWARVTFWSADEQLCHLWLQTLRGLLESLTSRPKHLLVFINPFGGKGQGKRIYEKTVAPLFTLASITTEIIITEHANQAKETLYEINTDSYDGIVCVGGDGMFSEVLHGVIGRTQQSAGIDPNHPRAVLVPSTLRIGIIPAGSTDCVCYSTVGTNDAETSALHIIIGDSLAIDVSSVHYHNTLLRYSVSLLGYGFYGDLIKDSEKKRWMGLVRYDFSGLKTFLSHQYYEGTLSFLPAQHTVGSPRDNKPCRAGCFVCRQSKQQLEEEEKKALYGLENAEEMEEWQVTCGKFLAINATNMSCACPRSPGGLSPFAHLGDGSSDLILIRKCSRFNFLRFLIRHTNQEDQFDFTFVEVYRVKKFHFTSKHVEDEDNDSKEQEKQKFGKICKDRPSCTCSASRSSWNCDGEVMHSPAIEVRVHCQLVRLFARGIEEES

[2] = molecular target: T2, ceramide kinase (CERK), human (Homo sapiens, UniProt Q8TCT0); assay: in vitro CERK activity assay; format: biochemical
T2 sequence (Q8TCT0 1-537): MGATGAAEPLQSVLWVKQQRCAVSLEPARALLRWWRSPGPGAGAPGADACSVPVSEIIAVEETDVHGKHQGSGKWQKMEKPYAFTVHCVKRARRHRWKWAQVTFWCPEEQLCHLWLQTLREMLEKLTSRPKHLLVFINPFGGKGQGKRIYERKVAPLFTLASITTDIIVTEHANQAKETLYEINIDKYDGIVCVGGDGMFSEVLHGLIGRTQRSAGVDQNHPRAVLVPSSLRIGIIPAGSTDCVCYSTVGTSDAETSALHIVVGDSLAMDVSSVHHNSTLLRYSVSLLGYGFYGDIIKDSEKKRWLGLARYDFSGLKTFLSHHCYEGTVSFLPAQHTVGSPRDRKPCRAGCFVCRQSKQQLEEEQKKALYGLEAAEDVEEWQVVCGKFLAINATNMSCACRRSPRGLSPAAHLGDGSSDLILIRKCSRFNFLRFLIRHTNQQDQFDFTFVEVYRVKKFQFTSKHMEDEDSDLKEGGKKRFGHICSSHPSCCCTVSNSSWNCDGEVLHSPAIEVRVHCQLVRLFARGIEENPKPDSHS

[3] = molecular target: T1, ceramide kinase (CERK), mouse; assay: in vitro CERK activity assay; format: biochemical

| IC50 [2] | IC50 [3] | Compound | C1P product levels by UPLC ESI-MS/MS in mouse dermal fibroblasts, 100 nM [1] |
| --- | --- | --- | --- |
|  |  | O=C(Nc1nc2ccc(NC(=O)C34CC5CC(CC(C5)C3)C4)cc2s1)c1ccccc1 [NVP-231, N-[2-(Benzoylamino)-6-benzothiazolyl]tricyclo[3.3.1.13,7]decane-1-carboxamide] | significantly reduced by SYR382141 in pDFs to an equivalent or greater extent as NVP-231 |
| 5 nM | 9 nM | SYR382141 |  |

Source: paper PMC8980959, “Ceramide kinase regulates acute wound healing by suppressing 5-oxo-ETE biosynthesis and signaling via its receptor OXER1” (Journal of Lipid Research, 2022)
